Test results: patent US8945540B2, “Compositions for enhancing the antibacterial activity of myeloperoxidase and methods of use thereof” (Exoxemis, Inc., priority 2008, dated 2015)
Like-named read-outs stand apart in the source and are kept apart here.

What was measured:
[1] = tested on: Staphylococcus aureus; experiment: Microbicidal activity of the myeloperoxidase system (p-MPO, glucose oxidase, glucose) with amino acids in the presence of blood, CFU plate counts; synergy determination from these CFU; assay type: cell-based; details: for Average Viability CFU/ml 60 min / Log Reduction 60 min / Log 10 (CFU + 1) Survivors 60 min: MPO 38 U/ml, GO 33.3 U/ml, blood; for Average Viability CFU/ml 50 min / Log Reduction 50 min: MPO 4.7 U/ml, GO 4.2 U/ml
Protocol: Bacterial suspensions, specifically Staphylococcus aureus in this example, were prepared by the shake flask method to achieve late log to early stationary phase growth. Bacteria were grown 24 hours in trypticase soy broth (TSB) at 35° C. The cultures were centrifuged at 4,000 rpm for 10 minutes and the supernatants removed. The pellet was collected and washed twice with sterile 0.9% normal saline (NS). The washed microorganisms were suspended and diluted with normal saline to a 3 McFarland standard, i.e., approximately 10^9 bacteria colony forming units (CFU) per mL. Actual colony counts are confirmed by serial dilutions (10^−1 to 10^−5 or 10^−6) plated on TSA and incubated overnight at 35° C. To obtain an approximate final working target inoculum of 10^7 CFU/mL, 15 microliters of organisms per mL of final reaction mixture are used.
Glucose oxidase (GO) from Aspergillus Niger was purchased from Biozyme, Inc., UK, Cat #GO3A, 270 U/mg). Porcine Myeloperoxidase (p-MPO) (Exoxemis, Inc., Little Rock, Ark. U.S.A., 375 U/mg). Sterile stock solutions of D-glucose and sodium chloride were prepared and used at a final concentration of 150 mM each. L-Lysine hydrochloride (Spectrum Chemical Cat #L1142) was prepared as a 100 mM stock solution. Catalase (Sigma, Cat #C-40) was prepared as a 1% stock solution in sterile 0.9% normal saline. Blood was collected by venipuncture and used as whole blood within the same day.
Staphylococcus aureus were used to give a final target concentration of 2-3×10^7 CFU (7.4 log 10) per mL and venous whole blood was used to give a final concentration of 3%. Glucose was added to the reaction mixtures to a final concentration of 150 mM, which initiated the microbicidal reaction. The final volume of the reaction mixtures was 1 mL. The reactions were allowed to run from 30 minutes to 2 hours, as needed, at room temperature or at 37° C. in a dry bath. At the specified time points the reaction mixtures were treated with 100 microliters of a catalase solution, containing a minimum of 100 units/μL, to consume remaining peroxide and terminate the oxidative killing. Serial dilution plate counts were performed from the contents of each vial in sterile saline and inoculated onto trypticase soy agar (TSA) for quantitative culture. Plates were then incubated at 37° C. and counts taken at 24 hours. […] The results are shown in Table 1, as the average of 2 replicates.
The amino acids alone, in the absence of MPO were tested to rule out their microbicidal activity. The results are shown in Table 2 to Table 6, as the average of 2 replicates.
The amino acid analogues alone, in the absence of MPO, were tested to rule out their microbicidal activity. […]
The effect of two-way combinations of individual amino acids with L-isoleucine, as potential enhancing agents, for MPO microbicidal action in the presence of blood, was therefore examined by following the procedure of Example 5.
The Actual CFU observed for the pair is then divided by the Predicted CFU and multiplied by 100 to calculate the % of Predicted value. This value is then to be compared to the threshold value, discussed in the next section, to determine whether the pair are synergistic, antagonistic, or additive.
Calculation of appropriate threshold values for determination of synergism and antagonism was based upon the variability of replicated CFU survivor measures.

[2] = tested on: Staphylococcus aureus; experiment: Control: microbicidal activity of the amino acid or analogue alone (no glucose, MPO, glucose oxidase) in the presence of blood; assay type: cell-based; details: for log reduction at 5000 µM: Staphylococcus aureus, 1 h, read-out: Log Reduction 60 min
Source text: As a control to determine the microbicidal activity of the amino acids alone, the foregoing procedure was followed without replication, except in the absence of glucose, MPO, and glucose oxidase.

[3] = Table 7, amino acid analogue 5 mM
[4] = amino acid analogue alone 5 mM, MPO 0, GO 0, no glucose, blood
[5] = MPO 100 μg/mL, AA 20 mM, 30 min
[6] = MPO 100 μg/mL, AA 20 mM, 60 min
[7] = Table 3, amino acid 5 mM (none: 0 mM)
[8] = amino acid alone 5 mM, MPO 0, GO 0, no glucose, blood, without replication
[9] = Table 13, single amino acid 2.5 mM, in the presence of blood
[10] = Table 14, single amino acid 2.5 mM, in the presence of blood
[11] = Table 4, amino acid 5 mM (none: 0 mM)
[12] = Table 11, single amino acid 2.5 mM, in the presence of blood
[13] = Table 19, amino acid (racemic, L- or D-form) 2.5 mM
[14] = Table 2, amino acid 5 mM (none: 0 mM)
[15] = Table 10, single amino acid 2.5 mM, in the presence of blood

SMILES	Log 10 (CFU + 1) Survivors ([1]; MPO 25 μg/mL, AA 5 mM, 30 min)	Log 10 (CFU + 1) Survivors ([1]; MPO 25 μg/mL, AA 5 mM, 60 min)	Log 10 (CFU + 1) Survivors ([1]; MPO 25 μg/mL, AA […], 30 min)	Log 10 (CFU + 1) Survivors ([1]; MPO 25 μg/mL, AA […], 60 min)	Log 10 (CFU + 1) Survivors ([1]; MPO 100 μg/mL, AA 5 mM, 30 min)	Log 10 (CFU + 1) Survivors ([1]; MPO 100 μg/mL, AA 5 mM, 60 min)	Log 10 (CFU + 1) Survivors [1, 5]	Log 10 (CFU + 1) Survivors [1, 6]	Average Viability CFU/ml 60 min [1, 7] [CFU/ml]	Log 10 (CFU + 1) Survivors 60 min [1, 7]	Log Reduction 60 min [1, 7]	log reduction at 5000 µM [2, 8]	Average Viability CFU/ml 60 min [2, 8] [CFU/ml]	Average Viability CFU/ml 50 min [1, 9] [CFU/ml]	Log Reduction 50 min [1, 9]	Average Viability CFU/ml 50 min [1, 10] [CFU/ml]	Log Reduction 50 min [1, 10]	Average Viability CFU/ml 60 min [1, 11] [CFU/ml]	Log Reduction 60 min [1, 11]	log reduction at 5000 µM [2]	other results
CCOC(=O)CC(C)N (centres unmarked) [Ethyl 3-aminobutyrate]	–	–	–	–	–	–	–	–	–	–	–	–	–	–	–	–	–	–	–	–	Average Viability CFU/ml 60 min [1, 3]: 0 CFU/ml; Log Reduction 60 min [1, 3]: 7.4; log reduction at 5000 µM [2, 4]: 0; Average Viability CFU/ml 60 min [2, 4]: 20900000 CFU/ml
NCCS(=O)(=O)O [Taurine]	7.3	7.0	7.3	7.1	7.3	5.0	7.3	5.1	830000	5.9	1.4	0	21600000	–	–	–	–	–	–	–	–
N[C@@H](Cc1ccc(O)cc1)C(=O)O [L-Tyrosine]	7.3	7.1	7.3	7.0	7.3	5.8	7.3	7.2	630000	5.8	1.5	0	21600000	890000	1.4	1450000	1.3	–	–	–	–
CC(C)C[C@@H](N)C(=O)O [D-Leucine]	3.8	2.2	6.7	2.1	2.7	2.0	1.8	1.9	–	–	–	0	24400000	119000	2.3	163500	2.2	66550	2.6	–	Average Viability CFU/ml 50 min [1, 12]: 313000 CFU/ml; Log Reduction 50 min [1, 12]: 1.9; Average Viability CFU/ml 50 min [1, 13]: 215000 CFU/ml; Log Reduction 50 min [1, 13]: 2.1
NCCCC[C@@H](N)C(=O)O [D-Lysine]	–	–	–	–	–	–	–	–	–	–	–	–	25100000	–	–	–	–	5050000	0.7	0	–
N[C@@H](CCC(=O)O)C(=O)O [L-Glutamic acid]	7.1	7.0	7.3	6.7	6.9	2.8	7.3	6.0	–	–	–	–	23700000	11800000	0.3	13700000	0.3	–	–	0	Average Viability CFU/ml 60 min [1, 14]: 236 CFU/ml; Log 10 (CFU + 1) Survivors 60 min [1, 14]: 2.4; Log Reduction 60 min [1, 14]: 5.0; Average Viability CFU/ml 50 min [1, 15]: 10850000 CFU/ml; Log Reduction 50 min [1, 15]: 0.4
N[C@H](Cc1c[nH]c2ccccc12)C(=O)O [D-Tryptophan]	–	–	–	–	–	–	–	–	–	–	–	–	22600000	–	–	–	–	19700000	0.1	0.1	–
C[C@H](O)[C@@H](N)C(=O)O [D-Threonine]	7.3	6.8	7.3	6.7	7.1	5.1	7.4	5.0	815000	5.9	1.4	0	20700000	–	–	–	–	–	–	–	Average Viability CFU/ml 50 min [1, 12]: 2020000 CFU/ml; Log Reduction 50 min [1, 12]: 1.1
CC(=O)C(=O)O [Pyruvic acid]	–	–	–	–	–	–	–	–	4900000	6.7	0.6	0	22100000	–	–	–	–	–	–	–	–
